Where “and” joins values, the source holds several entries; their conditions need not be identical. Equal entries are not always repeated.
Test system: HVA release in the rat prefrontal cortex
Assay: Microdialysis: HVA release in prefrontal cortex after I.P. administration
Type: in vivo
Conditions: Citalopram 10 mg/kg I.P.
Experimental: The aim of the study was to evaluate, using microdialysis, the effects of an intraperitoneal (I.P.) administration in rats of three different doses of SON-117 on dopamine and its metabolites, serotonin and its metabolite (5-HIAA), and norepinephrine levels in prefrontal cortex.
Thirty-two adult male Wistar rats were used for the whole study (4 groups of eight animals planned for the study, Table 1).
Surgery was performed on rats weighing about 300 g at the beginning of the experiments. Rats were anaesthetized with Ketamine (50 mg/kg) & Xylazine (15 mg/kg) by intramuscular administration. The animals were placed in a stereotaxic apparatus in the flat-skull position at a constant setting of −3.3 mm between ear bars and the incisor bar. The animals were treated with a local anesthesic (xylocaine 1%, Astra Zeneca) and an analgesic (Temgesic, from Schering Plough, 0.05 mg/kg, s.c.). A rostrocaudal midline incision was made with a lancet to expose the dorsal skull surface. The “stereotaxic zero” was defined by the Bregma in accordance with Paxinos and Watson's atlas (1986). A hole was drilled in the skull with a drill and the meninges were pierced with a sterile needle to implant a CMA12 guide cannula which later received the dialysis probe.
Coordinates used for implanting guide cannula in prefrontal cortex from Bregma were anteroposterior 3.7 mm, mediolateral 0.8 mm, and dorsoventral −2 mm (top of the probe was at −5 mm). The guide cannula was fixed to the skull with two stainless steel screws (1.88 mm outside diameter) anchored. An application of dental cement was added. A plastic collar allowed each animal to be tethered to a Swivel assembly of the CMA 120 awake animal system. Following surgery, rats were kept in individual cages and allowed to recover for a minimum of 3-5 days before the experimentation. The rats were handled and put in plastic bowl for 10 min at least every day to habituate the animals to their new environment for the dialysis. An I.P. administration with saline was also performed every day.
Dialysis probes (CMA12/3 mm, membrane, 20 kD cut-off, Carnegie Medicine, Stockholm, Sweden), were carefully washed before inserting into the guide cannula. The wash was performed with the artificial cerebrospinal fluid (aCSF) medium (NaCl 147 mM, KCl 2.7 mM, CaCl2 1.2 mM, MgCl2 0.85 mM) at room temperature. The dialysis system was then equilibrated at 20° C. at a perfusion rate of 1 μl/min with a Carnegie pump (CMA100). All catheters (FEP tubing, internal volume of 1.2 μl/10 cm, and tubing adaptors) used for microdialysis were treated in the same conditions.
The probes duly prepared were inserted into the guide cannula and the CMA120 Swivel assembly secured to the animal using a plastic collar. Flow through the dialysis probe with aCSF was maintained at a rate of 1 μl/min during the whole experimentation. The first four fractions (corresponding to 2 hours) were discarded to avoid the effects of parenchymal disturbance and to ensure that an approximate steady-state level was reached. Fractions were then collected over a period of 8.5 h during which time the animals remained quiet. The dialysates were automatically collected with an autosampler (microfraction collector CMA 140, Carnegie Medicin) and stored at −80° C. until analysis. […] Perfusion was then maintained for 7 hours with aCSF. The dialysates (30 μl) were collected into 300 μl vials, transferred into dry ice and then kept frozen (−80° C.) until analysis. Frozen samples were shipped to a partner for analysis. At the end of the microdialysis study, a PBS with colored ink was perfused through the probe in order to visualize the dialyzed area.
Catecholamine assay: Concentrations of dopamine, DOPAC, HVA, 5-HIAA, 5-HT, and norepinephrin were determined for each sample by HPLC coupled with electrochemical detection.

CN(C)CCCC1(c2ccc(F)cc2)OCc2cc(C#N)ccc21 (stereo not shown) [Citalopram, citalopram, reference compound]
HVA in dialysate, MEAN (T0-T30 min): 102.65 % of respective basal
HVA in dialysate, MEAN (T30-T1 h): 105.17 % of respective basal
HVA in dialysate, individual animals (T30-T1 h): 110.26 % of respective basal and 73.39 % of respective basal and 105.80 % of respective basal and 135.08 % of respective basal and 125.22 % of respective basal and 95.29 % of respective basal and 76.23 % of respective basal and 120.12 % of respective basal
HVA in dialysate, MEAN (T1 h 30-T2 h): 106.38 % of respective basal
HVA in dialysate, individual animals (T1 h 30-T2 h): 104.10 % of respective basal and 113.65 % of respective basal and 118.49 % of respective basal and 112.13 % of respective basal and 90.95 % of respective basal and 85.54 % of respective basal and 119.96 % of respective basal
HVA in dialysate, MEAN (T1 h-T1 h 30): 112.92 % of respective basal
HVA in dialysate, individual animals (T1 h-T1 h 30): 120.80 % of respective basal and 108.77 % of respective basal and 119.99 % of respective basal and 133.87 % of respective basal and 130.19 % of respective basal and 94.21 % of respective basal and 78.63 % of respective basal and 116.88 % of respective basal
HVA in dialysate, MEAN (T2 h 30-T3 h): 99.23 % of respective basal
HVA in dialysate, individual animals (T2 h 30-T3 h): 86.24 % of respective basal and 96.34 % of respective basal and 105.81 % of respective basal and 109.56 % of respective basal and 114.62 % of respective basal and 86.75 % of respective basal and 85.57 % of respective basal and 108.98 % of respective basal
HVA in dialysate, MEAN (T2 h-T2 h 30): 104.43 % of respective basal
HVA in dialysate, individual animals (T2 h-T2 h 30): 119.22 % of respective basal and 102.87 % of respective basal and 120.09 % of respective basal and 114.29 % of respective basal and 113.51 % of respective basal and 80.94 % of respective basal and 78.69 % of respective basal
HVA in dialysate, MEAN (T3 h 30-T4 h): 106.01 % of respective basal
HVA in dialysate, individual animals (T3 h 30-T4 h): 116.4 % of respective basal and 101.70 % of respective basal and 115.15 % of respective basal and 111.71 % of respective basal and 116.15 % of respective basal and 91.42 % of respective basal and 83.19 % of respective basal and 112.34 % of respective basal
HVA in dialysate, MEAN (T3 h-T3 h 30): 99.27 % of respective basal
HVA in dialysate, individual animals (T3 h-T3 h 30): 120.94 % of respective basal and 53.98 % of respective basal and 122.37 % of respective basal and 100.07 % of respective basal and 116.40 % of respective basal and 87.92 % of respective basal and 83.63 % of respective basal and 108.86 % of respective basal
HVA in dialysate, MEAN (T4 h 30-T5 h): 104.36 % of respective basal
HVA in dialysate, individual animals (T4 h 30-T5 h): 122.34 % of respective basal and 105.68 % of respective basal and 105.06 % of respective basal and 88.58 % of respective basal and 115.04 % of respective basal and 93.59 % of respective basal and 99.55 % of respective basal and 105.03 % of respective basal
HVA in dialysate, MEAN (T4 h-T4 h 30): 102.95 % of respective basal
HVA in dialysate, individual animals (T4 h-T4 h 30): 114.29 % of respective basal and 100.59 % of respective basal and 112.89 % of respective basal and 101.71 % of respective basal and 116.86 % of respective basal and 75.84 % of respective basal and 89.63 % of respective basal and 111.78 % of respective basal
HVA in dialysate, MEAN (T5 h 30-T6 h): 101.24 % of respective basal
HVA in dialysate, individual animals (T5 h 30-T6 h): 117.67 % of respective basal and 97.79 % of respective basal and 98.75 % of respective basal and 98.06 % of respective basal and 103.48 % of respective basal and 81.28 % of respective basal
HVA in dialysate, MEAN (T5 h-T5 h 30): 90.91 % of respective basal
HVA in dialysate, individual animals (T5 h-T5 h 30): 56.25 % of respective basal and 103.6 % of respective basal and 88.87 % of respective basal and 96.67 % of respective basal and 94.02 % of respective basal and 92.05 % of respective basal and 104.93 % of respective basal
HVA in dialysate, MEAN (T6 h 30-T7 h): 96.98 % of respective basal
HVA in dialysate, individual animals (T6 h 30-T7 h): 91.33 % of respective basal and 101.80 % of respective basal and 95.80 % of respective basal and 96.50 % of respective basal and 91.69 % of respective basal and 93.72 % of respective basal and 98.54 % of respective basal
HVA in dialysate, MEAN (T6 h-T6 h 30): 98.82 % of respective basal
HVA in dialysate, individual animals (T6 h-T6 h 30): 123.42 % of respective basal and 100.15 % of respective basal and 101.33 % of respective basal and 91.37 % of respective basal and 91.61 % of respective basal and 99.80 % of respective basal and 86.50 % of respective basal and 96.35 % of respective basal
HVA in dialysate, MEAN (T-30 min-T0 (pre-dose)): 100.15 % of respective basal
HVA in dialysate, MEAN (T-1 h 30-T-1 h (pre-dose)): 103.32 % of respective basal
HVA in dialysate, individual animals (T-1 h 30-T-1 h (pre-dose)): 98.60 % of respective basal and 95.37 % of respective basal
HVA in dialysate, MEAN (T-1 h-T-30 min (pre-dose)): 97.36 % of respective basal

Source: patent publication US20250109127A1, “METHODS OF USE OF PHENOXYPROPYLAMINE COMPOUNDS TO TREAT DEPRESSION” (Minerva Neurosciences, Inc., priority 2013, published 2025)
